{
  "source": "patent US20240350494A1",
  "about": "“THERAPEUTIC MODULATION OF INTEGRINS” (Pliant Therapeutics, Inc., priority 2021, published 2024)",
  "key": {"pSmad2/Smad2": {"tested_on": "pSmad2/Smad2", "assay": "Alveolar pSmad2/Smad2 in BAL, 80 mg and 160 mg QD (FIG. 10)", "assay_type": "in vivo, human", "details": "80 mg and 160 mg QD (Part 1), p<0.0001", "experimental": "Alveolar pSmad2/Smad2 percentage change from baseline at 24 h (Part 1: 80 mg and 160 mg). […] BAL—bronchoalveolar lavage; pSmad2/Smad2—ratio of phosphorylated Smad2 to total Smad2; QD—once daily."}, "COL1A1 expression": {"tested_on": "COL1A1 expression", "assay": "Precision cut lung slices from human IPF explants, COL1A1 expression", "assay_type": "cell-based", "description": "Explanted lung tissue was obtained from human IPF subjects and inflated with agarose as described in the preceding examples. Biopsy cores were obtained from the agarose-inflated lung tissue. The biopsy cores were subjected to precision slicing to obtain several hundred μm thick. Individual slices were distributed in a multiwell culture plate and cultured for […] under control (DMSO) and test compound conditions. The viability of the slices over the course of culturing was confirmed by WST-1 assay of mitochondrial activity.\nPCLS from 5-7 idopathic pulmonary fibrosis (IPF) lung tissue samples were cultured for seven days with one of: DMSO; Compound 5 at 200 nM; nintedanib at 75 nM; pirfenidone at 50 μm; a combination of Compound 5 at 200 nM and nintedanib at 75 nM; a combination of Compound 5 at 200 nM and pirfenidone at 50 μm; or an Alk5 inhibitor at 1 μm. […] FIG. 4D is a bar graph showing relative expression of COL1A1 in precision cut lung slices (PCLS) from idopathic pulmonary fibrosis (IPF) lung tissue upon exposure to Compound 5, clinical standard of care compounds nintedanib (Nin) and pirfenidone (Pirf), and an ALK5 inhibitor, all versus DMSO control.\nPCLS from a single IPF lung tissue sample were cultured for seven days with Compound 5 at concentrations of 200 μM, 2 nM, 60 nM, 200 nM, and 1 μM, along with 0.1% DMSO control and an Alk5 inhibitor at 1 μM. […] COL1A1 expression is also graphed for the PCLS in the presence of 0.1% DMSO control, and an Alk5 inhibitor at 1 μM."}, "lung collagen": {"tested_on": "lung collagen", "assay": "Murine bleomycin model, collagen deposition", "assay_type": "in vivo, mice (C57BL/6)", "details": "bleomycin mice", "experimental": "(§1) Mice (C57BL/6) were divided into healthy (n=15), vehicle-treated (n=15), and test article-treated (n=15 per dose) groups. Mice in the vehicle and test article-treated groups were administered 3 U/kg of bleomycin (Teva Pharmaceuticals; North Wales, PA) via oropharyngeal aspiration while under anesthesia on day 0. Healthy animals were administered water in a similar fashion. Starting on day 7, mice in the control group were administered PBS vehicle, 130 μL, by oral gavage, BID for 14 days. Also starting on day 7, mice in the test group were administered compound 5 in PBS by oral gavage, BID for 14 days, at relative dosages of 1×, 2.5× and 5×. […] From day 14 through day 21, 9 of the 15 mice were administered ^2H2O for labeling. All mice were sacrificed on day 21 and tissues were collected. Samples were prepared for analysis either directly from lung tissue, or by bronchoalveolar lavage, which washes out the bronchiolar and alveolar space with saline to produce a bronchoalveolar lavage fluid (BALF) in which 80-90% of cells are alveolar macrophages.\nFIGS. 2F, 2G, and 2H show high resolution second harmonic generation images of fibrillar collagen (collagen type I and III) taken from formalin-fixed paraffin embedded lung tissue sections from a healthy mouse lung (2F), a vehicle-treated mouse lung (2G) and a test-article treated mouse lung (2H; 500 mg/kg BID). Color scale is indicative of collagen fiber density (red=most dense; blue=least dense).\nFIG. 2I is a graph showing the percent total collagen area in the second harmonic generation mouse lung images. Large structural areas of collagen found similarly in healthy and fibrotic tissues (dense collagen fibers surrounding airways were excluded from this analysis to focus on interstitial fibrotic collagen). […] The 1×, 2.5×, and 5× dosages were at the same absolute values in mg/kg as in Example B2."}, "SMAD3 phosphorylation": {"tested_on": "SMAD3 phosphorylation", "assay": "Murine bleomycin model, SMAD3 phosphorylation", "assay_type": "in vivo, mice (C57BL/6)", "details": "bleomycin day 0, oral gavage BID 14 days from day 7 at 1×, 5×, FIG. 2C", "description": "It has been previously shown that inhibition of αVβ6 in the lung can be detected though measurement of phospho-SMAD (pSMAD) in alveolar macrophages. Alveolar macrophages are known to operate in a unique niche in the lung, distinct from interstitial macrophages. SMAD3 is a downstream target of the active TGF-β cytokine binding its receptor and in alveolar macrophages it is phosphorylated by homoeostatic levels of TGF-β. Accordingly, it was desirable to know whether inhibition of TGF-β activation using the disclosed compounds would result in reduced SMAD2 and SMAD3 phosphorylation.\nas §1, with “Samples were prepared for analysis either directly from lung tissue, or by bronchoalveolar lavage, which washes out the bronchiolar and alveolar space with saline to produce a bronchoalveolar lavage fluid (BALF) in which 80-90% of cells are alveolar macrophages.” left out"}, "[1]": {"tested_on": "Human bronchial epithelial cells", "assay": "LAP adhesion assay, normal human bronchial epithelial cells (express αVβ6)", "assay_type": "cell-based", "details": "cell index (electrical impedance), xCELLigence; FIG. 1A", "experimental": "Two latency associated peptide (LAP) adhesion binding assays were devised using primary human lung cells, including normal (healthy) human bronchial epithelial cells and human lung fibroblasts (healthy and IPF).\nHuman bronchial epithelial cells are known to express αVβ6 integrin in culture. Human bronchial epithelial cells were prepared for the assay by dissociation with trypsin/EDTA and were then seeded at 20,000 cells per well on 96 well plates (ACEA Bioscience E-plate View, Acea Biosciences; San Diego, CA) previously coated with 5 μg/ml of recombinant human LAP (R&D Systems; Minneapolis, MN) and blocked with 4% bovine serum albumin. Cell index (electrical impedance) was measured to assess cell attachment/spreading every 3 minutes for 24 hours at 37° C./5% CO2 using the xCELLigence RTCA MP Instrument (Acea Biosciences; San Diego, CA)."}, "[2]": {"assay": "Phase 2a trial in IPF, safety and tolerability", "assay_type": "in vivo, human"}, "[3]": {"tested_on": "Type I Collagen gene Col1a1 expression", "assay": "Precision cut lung slices, acute bleomycin exposure, Col1a1 expression", "assay_type": "cell-based, mice (C57BL/6)", "details": "3 days culture; integrin inhibitors at IC50 for TGF-beta activation; pan-αV and ALK5 inhibitors at 10× reported IC50; FIG. 3A", "experimental": "Mice (C57BL/6) were administered 3 U/kg of bleomycin (Teva Pharmaceuticals; North Wales, PA) on day 0 via oropharyngeal aspiration while under anesthesia. On day 14, precision cut lung slices were obtained. Following euthanization, 2% low gelling temp agarose was injected into the mouse lungs via the trachea. […] The lobes were then subjected to precision slicing to obtain samples for culture using a microtome (Compresstome VF-300-OZ, Precisionary; Greenville, NC). Individual slices were distributed in a multiwell culture plate and cultured for 3 days under control (DMSO) and test compound conditions."}, "[4]": {"details": "of the 67 patients treated with Compound 5"}},
  "note": "“Also recorded” adds a separate entry of the source.",
  "data": [
    {"compound": "COCCN(CCCCc1ccc2c(n1)NCCC2)CC[C@H](Nc1ncnc2ccccc12)C(=O)O", "note": "[Compound 5, (S)-4-((2-methoxyethyl)(4-(5,6,7,8-tetrahydro-1,8-naphthyridin-2-yl)butyl)amino)-2-(quinazolin-4-ylamino)butanoic acid]", "values": [
      {"measurement": "Alveolar pSmad2/Smad2 percentage change from baseline at 24 h vs. placebo", "setting": "pSmad2/Smad2", "value": "statistically significant at both doses"},
      {"measurement": "lung Col1a1 expression, normalized to DMSO control slices", "setting": "COL1A1 expression; human IPF slices, 3 days, 3G9 ≥400 ng/mL, compound 5 179 nM, ALK5 inhibitor 1 μM, FIG. 4C", "value": "substantial, statistically significant (p<0.01 vs vehicle) decrease"},
      {"measurement": "COL1A1 expression, concentration dependence", "setting": "COL1A1 expression; single IPF sample, seven days, 200 μM, 2 nM, 60 nM, 200 nM, 1 μM, FIG. 4E", "value": "dose dependent reduction"},
      {"measurement": "accumulated new collagen (percentage of lung collagen containing 2H-labeled hydroxyproline)", "setting": "lung collagen; 1× and 5× BID, FIG. 2D", "value": "dose-dependent reduction"},
      {"measurement": "total pulmonary collagen (μg of hydroxyproline)", "setting": "lung collagen; 1×, […], 5× BID, FIG. 2E", "value": "reduction in total pulmonary collagen"},
      {"measurement": "total collagen area in second harmonic generation images", "setting": "lung collagen; 1×, […], 5× BID, FIG. 2I", "value": "substantial, statistically significant dose-dependent reduction"},
      {"measurement": "SMAD3 phosphorylation in lung tissue compared to vehicle-treated mice", "setting": "SMAD3 phosphorylation", "value": "substantial, statistically significant dose-dependent reductions"},
      {"measurement": "inhibition of normal bronchial epithelial cell adhesion to LAP", "setting": "[1]", "value": "substantially inhibited"},
      {"measurement": "discontinuations due to adverse events", "setting": "[2]; 12 weeks, 40-160 mg QD", "value": "no discontinuations due to adverse events; also recorded: No premature discontinuations due to AEs; also recorded: no participants discontinued Compound 5 due to TEAE"},
      {"measurement": "most frequent TEAE", "setting": "[2]; 12 weeks, 40-160 mg QD", "value": "diarrhea but only seen in patients on standard of care"},
      {"measurement": "severity of most treatment emergent adverse events (TEAE)", "setting": "[2]; 12 weeks, 40-160 mg QD", "value": "mild or moderate in severity"},
      {"measurement": "treatment related deaths or drug related serious adverse events (SAE)", "setting": "[2]; 12 weeks, 40-160 mg QD", "value": "No treatment related deaths or drug related serious adverse events (SAE) were reported; also recorded: No deaths or drug-related SAEs; also recorded: no treatment-emergent serious adverse events (SAEs) were observed; also recorded: no treatment related SAEs or deaths"},
      {"measurement": "tolerability", "setting": "[2]; IPF patients, 40, 80, 160 mg once daily, 12 weeks", "value": "safe and well tolerated"},
      {"measurement": "patients who completed 12 weeks of treatment, number", "setting": "[2]; [4]", "value": 65},
      {"measurement": "patients who completed 12 weeks of treatment, proportion", "setting": "[2]; [4]", "value": 97, "unit": "%"},
      {"measurement": "Type I Collagen gene Col1a1 expression, normalized to DMSO control slices", "setting": "[3]", "value": "decreased Type I Collagen gene Col1a1 expression substantially"}
    ]}
  ]
}
